Assay results: PubChem BioAssay AID1996
In brackets after ≈: the same amount, converted by molar mass.

details: buffer; pH 7.4; 200.0 µM

solubility kinetic [µg/mL] | Structure (SMILES)
56.1 (≈ 134 µM) | Cc1ccccc1NC(=O)c1cccc(NC(=O)c2c(C(=O)O)cccc2[N+](=O)[O-])c1
40.2 (≈ 141 µM) | CC(C)(C)N1CC(C(=O)Nc2ccc(C#N)cc2)CC1=O (stereo not given)
11.6 (≈ 32.6 µM) | Cc1onc(-c2ccccc2)c1C(=O)O/N=C(\N)c1ccc([N+](=O)[O-])o1
3.5 (≈ 9.9 µM) | Cc1cccc(NC(=O)c2cc(-c3ccccn3)nc3ccccc23)c1C
> 51.1 | COc1ccc(S(=O)(=O)N2CCOCC2)cc1NC(=O)C1CC1
> 46.7 | CC1CN(c2ccccc2)c2nc3c(c(=O)[nH]c(=O)n3C)n2C1 (stereo not given)
> 43 | CCOC(=S)N/C(=N\S(C)(=O)=O)c1ccccc1
28 (≈ 145 µM) | Cc1csc(/N=C/N(C)C)c1C#N
2.1 (≈ 7.04 µM) | O=c1[nH]c(/C=C/c2cccc3ccccc23)nc2ccccc12
> 49.5 | O=C(Cc1ccc(Cl)cc1Cl)OCC(=O)N1CCCCC1
0.9 (≈ 3.07 µM) | Cc1ccc(C)c(C(=O)CN2C(=O)c3ccccc3C2=O)c1
> 34.8 | O=C(Cc1ccccc1)NCC(=O)N1CCC1
< 0.3 | Cc1ccccc1COc1ccc(/C=C(\C#N)C(N)=O)cc1
4.2 (≈ 14.1 µM) | O=C(CCSc1nc2ccccc2o1)Nc1ccccc1
4.5 (≈ 12.2 µM) | Cn1c(N)c(C(=O)COC(=O)c2ccc(F)cc2Cl)c(=O)n(C)c1=O
37.4 (≈ 119 µM) | CC1(C)Cc2c(C#N)c(NCCO)nc(-c3ccco3)c2CO1
4.5 (≈ 14.3 µM) | O=C(CCNC(=O)c1ccco1)Nc1nc2ccccc2s1
> 41.2 | Cc1cccc2cc(CNC3CCCC3)c(Cl)nc12
14.6 (≈ 45.3 µM) | COc1cccc(-c2onc3ccc(C(=O)/C=C/N(C)C)cc23)c1
> 36.8 | CC(=O)c1cccc(NC(=O)CC2CCCC2)c1
12.8 (≈ 39.1 µM) | CCn1c(NCCO)nc2c(c1=O)C(C)(CC)Cc1ccccc1-2 (stereo not given)

solubility kinetic [µg/mL] | Structure (SMILES)
> 38.6 | COc1ccc(NC(=O)NCc2cccnc2)cc1
21.2 (≈ 58.8 µM) | COc1ccc(OCCN(C)CC(=O)Nc2ccccc2SC)cc1
> 48.2 | O=C(Nc1ccc(F)cc1)N1CCN(C(=O)C2CCCO2)CC1 (stereo not given)
> 47.7 | Cl.O=S(=O)(CCc1ccncc1)c1ccc(Cl)cc1
> 44.4 | O=C(OCC(=O)N1CCCCCC1)c1cccc(Cl)c1
5.2 (≈ 20.7 µM) | COc1ccc(NC(=O)C#Cc2ccccc2)cc1
1.7 (≈ 4.96 µM) | COc1ccccc1CNC(=O)CC1Sc2ccccc2NC1=O (stereo not given)
> 39.6 | CCN(CC)CCNC(=O)/C(=N\O)c1ccccn1
> 29.6 | CCCn1c(N)c(CC)c(=O)[nH]c1=O
15.3 (≈ 47.7 µM) | O=S1(=O)CCC(NC(=S)Nc2ccc3ccccc3c2)C1 (stereo not given)
9.2 (≈ 28.7 µM) | CC(C)C(=O)Nc1c(-c2ccccc2)c(=O)c2ccccc2n1C
< 0.4 | Cn1cc(/C=C2\SC(=O)N(c3ccc(O)cc3)C2=O)c2ccccc21
1.1 (≈ 3.29 µM) | O=C(NCc1ccccc1)c1nc[nH]c1C(=O)NCc1ccccc1
15.8 (≈ 50.4 µM) | O=C(COc1ccc2c3c(c(=O)oc2c1)CCC3)N1CCCC1
11.5 (≈ 31 µM) | Cc1cc(C(=O)CN2C(=O)C(=O)N(CCC3=CCCCC3)C2=O)c(C)n1C
> 49.3 | O=C(NCC(=O)N1CCc2ccccc2C1)c1ccccc1Cl
> 53.9 | NS(=O)(=O)c1ccc(NC(=O)CN2C(=O)c3ccccc3C2=O)cc1
48 (≈ 133 µM) | CN(C)c1cc2c(cc1NS(=O)(=O)c1ccccc1)n(C)c(=O)n2C
0.6 (≈ 1.99 µM) | CN(C)c1nc(-c2cccnc2)nc(-c2ccccc2)c1C#N
> 48.5 | CCOC(=O)c1sc(NC(=O)c2c(CC)noc2C)nc1C
> 44.4 | CN1C(=O)C(c2ccccc2[N+](=O)[O-])C(=O)c2ccccc21 (stereo not given)

solubility kinetic [µg/mL] | Structure (SMILES)
> 50.8 | C=CCNC(=O)c1ccc2c(c1)N(CC)C(=O)c1ccccc1S2
> 61.4 | Cc1cccc(S(=O)(=O)Nc2ccc(S(=O)(=O)Nc3nccs3)cc2)c1
> 45.6 | Nc1nc(NCc2ccco2)nc(N2CCCC2)c1[N+](=O)[O-]
> 41.3 | CCn1nc(C)c(/C=N/NC(=O)Cn2cncn2)c1C
> 50.6 | CN(CC1COc2ccccc2O1)C(=O)CSc1nncs1 (stereo not given)
> 45.6 | CCn1cc(S(=O)(=O)Nc2ccc(Cl)cc2F)cn1
> 43.1 | Cc1cc2c(cn1)C(CCC#N)(CCC#N)c1ccccc1-2
0.8 (≈ 2.93 µM) | Cc1ccc(Nc2nc(-c3cccs3)cs2)nc1
30.8 (≈ 124 µM) | COc1ccccc1NC(=O)N1CCN(C)CC1
> 52.5 | COc1ccccc1CCNC(=O)c1c(C)nn(CC(C)C)c1Cl
41.4 (≈ 122 µM) | CC(C)CNC(=O)COC(=O)C1c2ccccc2Oc2ccccc21
14.5 (≈ 33.6 µM) | O=C(Nc1ccc(Cl)c(S(=O)(=O)N2CCCC2)c1)c1cc(=O)[nH]c2ccccc12
3.3 (≈ 9.29 µM) | CN1CCN(C(=S)c2ccc(-c3cc(Cl)ccc3Cl)o2)CC1
3.9 (≈ 13.9 µM) | Cc1ccc(C(=O)Nc2ccc3[nH]c(=O)[nH]c3c2)c(C)c1
4.5 (≈ 16.6 µM) | Cc1ccc(OCCNC(=O)c2ccccc2O)cc1
47.5 (≈ 142 µM) | Cc1ccc(N(Cc2cc(=O)[nH]c3ccccc23)C(=O)C(C)C)cc1
41.2 (≈ 125 µM) | COC(=O)c1onc(-c2c(Cl)cccc2Cl)c1C(=O)OC
> 56 | Cc1cc(=O)oc2cc(OCC(=O)NCC3CCC(C(=O)O)CC3)ccc12 (stereo not given)
45.8 (≈ 145 µM) | CCC1(CC)NC(=O)N(CC(=O)N2CCc3ccccc32)C1=O
22.3 (≈ 72 µM) | CC(OC(=O)C1CCCCC1)C(=O)Nc1cccc(Cl)c1 (stereo not given)
> 43.4 | NC(=O)C1CCN(C(=O)CNC(=O)c2ccccc2)CC1

solubility kinetic [µg/mL] | Structure (SMILES)
41.9 (≈ 144 µM) | CCSC1=C(C#N)C(CC(C)C)C2=C(CCCC2=O)N1 (stereo not given)
46.8 | CC(=O)N1CCN(CC(=O)Nc2ccc(C)c(F)c2)CC1.Cl
30.9 (≈ 144 µM) | Cc1cc(Nc2ccccc2)cc(=O)n1C
19.7 (≈ 74 µM) | COc1ccccc1C(=O)c1nc2ccccc2n1C
20.8 (≈ 48 µM) | O=C(NC1=NCCS1)C1CCN(S(=O)(=O)c2cc([N+](=O)[O-])ccc2Cl)CC1
> 32.1 | Cc1ccc(C(=O)c2nccn2C)cc1C
25.3 (≈ 91.2 µM) | COc1cc(/C=C2\N=C(C)OC2=O)cc(OC)c1OC
> 45.7 | CCC(Oc1ccc(C)c(C)c1)C(=O)N1CCCN(C)CC1 (stereo not given)
4.5 (≈ 12.8 µM) | COc1ccccc1C(=O)NCC(=O)N1CC=C(c2ccccc2)CC1
> 32.6 | CC(=O)N1CCOCCOCCOCC1
> 45.8 | COC(=O)C(NC(C)=O)(Nc1cccc(C)n1)C(F)(F)F (stereo not given)
> 38.1 | CC(=O)Nc1cccc(C(=O)/C=C/c2ccc[nH]2)c1
> 52.6 | CCC(CC)N1CCN(C(=O)c2cc(OC)c(OC)c(OC)c2)CC1
34.4 (≈ 101 µM) | CCOc1ccccc1NS(=O)(=O)c1cn(C)c(=O)n(C)c1=O
> 36.6 | COc1cc(C(C)=O)ccc1Oc1ncccn1
0.8 (≈ 2.32 µM) | COC(=O)c1ccc(NC(=S)NCCc2ccc(OC)cc2)cc1
37.6 (≈ 135 µM) | Cc1cc(NC(=O)c2ccc3[nH]c(C)c(C)c3c2)ccn1
7.8 (≈ 21.8 µM) | O=C(CN1C(=O)S/C(=C\C=C\c2ccccc2)C1=O)N1CCOCC1
> 43.4 | Cc1nc(C(F)(F)F)ccc1C(=O)NN1CCOCC1

Structure (SMILES) | solubility kinetic [µg/mL]
CC(C)CN1CCN(Cc2ccc(C(F)(F)F)cc2)CC1CCO (stereo not given) | 45.5 (≈ 132 µM)
CCOP(=O)(OCC)C(Cc1ccccc1)NC(C)=O (stereo not given) | 43.5 (≈ 145 µM)
COP(=O)(OC)/C(C=O)=N/Nc1ccc([N+](=O)[O-])cc1 | > 45.2
